Reference: PubChem BioAssay AID330 (DTP/NCI, 2004)
Values joined by “and” are separate entries in the source; they are usually repeats but may differ in a detail not shown here. Equal values may be shown once. Inconclusive results and toxic doses are left out.

System: P388 leukemia ip, CD2F1 mice, survival T/C
Test: NCI In Vivo Anticancer Drug Screen. Data for tumor model P388 Leukemia (intraperitoneal) in CD2F1 (CDF1) mice
Settings: endpoint: median survival time, higher = longer survival
In short: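 Mice carrying the transplanted tumor received test compound or vehicle. Survival was recorded in each group, and the value is the treated-group measurement divided by that of the vehicle-treated control group.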

[1] = dose: 100.0 mg/kg/injection, schedule: Q04DX003 (ip), vehicle: saline
[2] = dose: 200.0 mg/kg/injection, schedule: Q04DX003 (ip), vehicle: saline
[3] = dose: 400.0 mg/kg/injection, schedule: Q04DX003 (ip), vehicle: saline
[4] = dose: 50.0 mg/kg/injection, schedule: Q01DX005 (ip), vehicle: saline with Tween-80
[5] = dose: 100.0 mg/kg/injection, schedule: Q01DX005 (ip), vehicle: saline with Tween-80
[6] = dose: 200.0 mg/kg/injection, schedule: Q01DX005 (ip), vehicle: saline with Tween-80
[7] = dose: 25.0 mg/kg/injection, schedule: Q01DX009 (ip), vehicle: saline with Tween-80
[8] = dose: 50.0 mg/kg/injection, schedule: Q01DX009 (ip), vehicle: saline with Tween-80
[9] = dose: 100.0 mg/kg/injection, schedule: Q04DX002 (ip), vehicle: saline with Tween-80
[10] = dose: 200.0 mg/kg/injection, schedule: Q04DX002 (ip), vehicle: saline with Tween-80
[11] = dose: 60.0 mg/kg/injection, schedule: Q01DX005 (ip), vehicle: saline with Tween-80
[12] = dose: 240.0 mg/kg/injection, schedule: Q01DX005 (ip), vehicle: saline with Tween-80
[13] = dose: 60.0 mg/kg/injection, schedule: Q01DX005 (ip), vehicle: Klucel (hydroxypropylcellulose) (HPC)
[14] = dose: 120.0 mg/kg/injection, schedule: Q01DX005 (ip), vehicle: Klucel (hydroxypropylcellulose) (HPC)
[15] = dose: 240.0 mg/kg/injection, schedule: Q01DX005 (ip), vehicle: Klucel (hydroxypropylcellulose) (HPC)

OCC1OC(n2cnc3cncnc32)C(O)C1O (stereo not drawn)
T/C (dose: 6.25 mg/kg/injection, schedule: Q01DX001 (ip), vehicle: saline): 111 % of control | T/C (dose: 6.25 mg/kg/injection, schedule: Q04DX003 (ip), vehicle: saline): 99 % of control | T/C (dose: 12.5 mg/kg/injection, schedule: Q01DX001 (ip), vehicle: saline): 111 % of control | T/C (dose: 12.5 mg/kg/injection, schedule: Q04DX003 (ip), vehicle: saline): 100 % of control | T/C (dose: 25.0 mg/kg/injection, schedule: Q01DX001 (ip), vehicle: saline): 114 % of control | T/C (dose: 25.0 mg/kg/injection, schedule: Q04DX003 (ip), vehicle: saline): 99 % of control | T/C (dose: 50.0 mg/kg/injection, schedule: Q04DX003 (ip), vehicle: saline): 96 % of control and 97 % of control | T/C [1]: 100 % of control | T/C [2]: 104 % of control | T/C [3]: 104 % of control

O=C(O)C1=C(C(=O)O)C2c3ccccc3C1c1ccccc12
T/C [4]: 99 % of control | T/C [5]: 90 % of control | T/C [6]: 103 % of control

COc1ccc(S(=O)(=O)/C(=C/c2ccccc2[N+](=O)[O-])C(=O)c2ccccc2)cc1
T/C [4]: 111 % of control | T/C [5]: 103 % of control | T/C [6]: 104 % of control

CCOC(=O)c1cc2c(nc1C)-c1ccccc1OC2Nc1ccccc1 (stereo not drawn)
T/C (dose: 3.12 mg/kg/injection, schedule: Q01DX005 (ip), vehicle: saline with Tween-80): 98 % of control | T/C (dose: 6.25 mg/kg/injection, schedule: Q01DX005 (ip), vehicle: saline with Tween-80): 96 % of control | T/C (dose: 12.5 mg/kg/injection, schedule: Q01DX005 (ip), vehicle: saline with Tween-80): 96 % of control | T/C [4]: 88 % of control | T/C (dose: 100.0 mg/kg/injection, schedule: Q01DX001 (ip), vehicle: saline with Tween-80): 89 % of control

Cc1ccc(-c2csc3nc(C)cc(=O)n23)cc1
T/C (dose: 100.0 mg/kg/injection, schedule: Q04DX003 (ip), vehicle: Klucel (hydroxypropylcellulose) (HPC)): 111 % of control | T/C (dose: 200.0 mg/kg/injection, schedule: Q04DX003 (ip), vehicle: Klucel (hydroxypropylcellulose) (HPC)): 105 % of control | T/C (dose: 400.0 mg/kg/injection, schedule: Q04DX003 (ip), vehicle: Klucel (hydroxypropylcellulose) (HPC)): 106 % of control

Cc1ccc(C(C)(N=[N+]=[N-])c2ccccc2)cc1C (stereo not drawn)
T/C [7]: 91 % of control | T/C [8]: 108 % of control | T/C (dose: 100.0 mg/kg/injection, schedule: Q01DX009 (ip), vehicle: saline with Tween-80): 109 % of control

C=C1CC(C)OC1=O (stereo not drawn)
T/C [9]: 103 % of control | T/C [10]: 111 % of control

CSc1sc(C#N)c2nc3c(nc12)-c1cccc2cccc-3c12
T/C (dose: 50.0 mg/kg/injection, schedule: Q04DX002 (ip), vehicle: saline with Tween-80): 88 % of control | T/C [9]: 88 % of control | T/C [10]: 91 % of control

Cc1ccccc1N1C(=O)[N+](C)(C)N=C1[O-]
T/C [1]: 109 % of control and 113 % of control | T/C [2]: 99 % of control and 113 % of control | T/C [3]: 91 % of control

C[CH2][Sn]([CH2]C)([N](c1ccccn1)c1ccccn1)[N](c1ccccn1)c1ccccn1
T/C (dose: 1.56 mg/kg/injection, schedule: Q01DX005 (ip), vehicle: Klucel (hydroxypropylcellulose) (HPC)): 123 % of control | T/C (dose: 3.12 mg/kg/injection, schedule: Q01DX005 (ip), vehicle: Klucel (hydroxypropylcellulose) (HPC)): 119 % of control | T/C (dose: 6.25 mg/kg/injection, schedule: Q01DX005 (ip), vehicle: Klucel (hydroxypropylcellulose) (HPC)): 116 % of control and 123 % of control

CCC(C)N=Cc1ccco1 (stereo not drawn)
T/C (dose: 25.0 mg/kg/injection, schedule: Q01DX005 (ip), vehicle: Klucel (hydroxypropylcellulose) (HPC)): 101 % of control | T/C (dose: 50.0 mg/kg/injection, schedule: Q01DX005 (ip), vehicle: Klucel (hydroxypropylcellulose) (HPC)): 104 % of control | T/C (dose: 100.0 mg/kg/injection, schedule: Q01DX005 (ip), vehicle: Klucel (hydroxypropylcellulose) (HPC)): 90 % of control | T/C (dose: 200.0 mg/kg/injection, schedule: Q01DX005 (ip), vehicle: Klucel (hydroxypropylcellulose) (HPC)): 99 % of control

CC(=O)OC1CC(C)OC(OC2CCC3(C=O)C4C(O)C(=O)[C@]5(C)C(c6ccc(=O)oc6)CC[C@]5(O)C4CC[C@]3(O)C2)C1OC(C)=O (stereo partly drawn)
T/C (dose: 0.18 mg/kg/injection, schedule: Q01DX009 (ip), vehicle: distilled water + Tween-80 + alcohol): 90 % of control | T/C (dose: 0.35 mg/kg/injection, schedule: Q01DX009 (ip), vehicle: distilled water + Tween-80 + alcohol): 107 % of control | T/C (dose: 0.71 mg/kg/injection, schedule: Q01DX009 (ip), vehicle: distilled water + Tween-80 + alcohol): 100 % of control | T/C (dose: 1.42 mg/kg/injection, schedule: Q01DX009 (ip), vehicle: distilled water + Tween-80 + alcohol): 109 % of control | T/C (dose: 2.84 mg/kg/injection, schedule: Q01DX009 (ip), vehicle: distilled water + Tween-80 + alcohol): 100 % of control

COc1ccc(C(C)=O)cc1CSC(=S)N1CCSCC1
T/C (dose: 15.0 mg/kg/injection, schedule: Q01DX005 (ip), vehicle: saline with Tween-80): 104 % of control | T/C (dose: 30.0 mg/kg/injection, schedule: Q01DX005 (ip), vehicle: saline with Tween-80): 99 % of control | T/C [11]: 90 % of control and 92 % of control | T/C [12]: 88 % of control

COC(=O)CSc1nnc(CSc2ccc(Cl)cc2)n1-c1ccccc1
T/C [11]: 93 % of control | T/C (dose: 120.0 mg/kg/injection, schedule: Q01DX005 (ip), vehicle: saline with Tween-80): 92 % of control | T/C [12]: 96 % of control

CN=S(=O)(OCCCCOS(=O)(=NC)c1ccc(C)cc1)c1ccc(C)cc1 (stereo not drawn)
T/C (dose: 50.0 mg/kg/injection, schedule: Q04DX003 (ip), vehicle: saline with Tween-80): 116 % of control

CC1(C)SC(C)(c2ccc[nH]2)N(c2nccs2)C1=O (stereo not drawn)
T/C [13]: 106 % of control | T/C [14]: 104 % of control | T/C [15]: 102 % of control

CN1CC[CH2][Sn]([Cl])([Cl])[CH2]CC1
T/C (dose: 3.75 mg/kg/injection, schedule: Q01DX005 (ip), vehicle: saline with Tween-80): 114 % of control | T/C (dose: 7.5 mg/kg/injection, schedule: Q01DX005 (ip), vehicle: saline with Tween-80): 105 % of control

c1ccc(-c2nc3ccccc3nc2-c2ccc(-c3ccc(-c4nc5ccccc5nc4-c4ccccc4)cc3)cc2)cc1
T/C (dose: 6.25 mg/kg/injection, schedule: Q01DX009 (ip), vehicle: saline with Tween-80): 88 % of control and 96 % of control | T/C (dose: 12.5 mg/kg/injection, schedule: Q01DX009 (ip), vehicle: saline with Tween-80): 101 % of control and 90 % of control | T/C [7]: 99 % of control and 120 % of control and 92 % of control | T/C [8]: 114 % of control and 87 % of control

O=C1NC(=O)N2CCCOC2C1c1ccccc1 (stereo not drawn)
T/C (dose: 50.0 mg/kg/injection, schedule: Q01DX009 (ip), vehicle: Klucel (hydroxypropylcellulose) (HPC)): 103 % of control | T/C (dose: 100.0 mg/kg/injection, schedule: Q01DX009 (ip), vehicle: Klucel (hydroxypropylcellulose) (HPC)): 99 % of control | T/C (dose: 200.0 mg/kg/injection, schedule: Q01DX009 (ip), vehicle: Klucel (hydroxypropylcellulose) (HPC)): 99 % of control

C[CH2][Sn]([CH2]C)([N]=C=S)[N]=C=S.c1ccc2nc(-c3ccc4ccccc4n3)ccc2c1
T/C [13]: 95 % of control | T/C [14]: 96 % of control | T/C [15]: 98 % of control

O=C(CCc1ccccc1C(=O)O)c1ccccc1O
T/C [4]: 94 % of control | T/C [5]: 105 % of control | T/C [6]: 93 % of control

COC(=O)[C@@]12OC[C@]34[C@H]([C@@H](O)[C@@H]1O)[C@@]1(C)CC(=O)C(O)=C(C)[C@@H]1C[C@H]3OC(=O)[C@H](OC(=O)/C=C(/C)C(C)(C)O)[C@@H]24
T/C (dose: 0.25 mg/kg/injection, schedule: Q01DX009 (ip), vehicle: saline + alcohol): 113 % of control and 115 % of control | T/C (dose: 0.5 mg/kg/injection, schedule: Q01DX009 (ip), vehicle: saline + alcohol): 115 % of control (2×) and 124 % of control | T/C (dose: 8.0 mg/kg/injection, schedule: Q01DX009 (ip), vehicle: saline + alcohol): 162 % of control

COCC(=O)O
T/C (dose: 50.0 mg/kg/injection, schedule: Q01DX009 (ip), vehicle: saline): 96 % of control | T/C (dose: 100.0 mg/kg/injection, schedule: Q01DX009 (ip), vehicle: saline): 93 % of control
